Tests used:
[1] = target: T1, Prostaglandin G/H synthase 1 (Ovis aries, UniProt P05979); assay: In Vitro Cyclooxygenase (COX) Inhibition Assay
T1 sequence (P05979 whole entry): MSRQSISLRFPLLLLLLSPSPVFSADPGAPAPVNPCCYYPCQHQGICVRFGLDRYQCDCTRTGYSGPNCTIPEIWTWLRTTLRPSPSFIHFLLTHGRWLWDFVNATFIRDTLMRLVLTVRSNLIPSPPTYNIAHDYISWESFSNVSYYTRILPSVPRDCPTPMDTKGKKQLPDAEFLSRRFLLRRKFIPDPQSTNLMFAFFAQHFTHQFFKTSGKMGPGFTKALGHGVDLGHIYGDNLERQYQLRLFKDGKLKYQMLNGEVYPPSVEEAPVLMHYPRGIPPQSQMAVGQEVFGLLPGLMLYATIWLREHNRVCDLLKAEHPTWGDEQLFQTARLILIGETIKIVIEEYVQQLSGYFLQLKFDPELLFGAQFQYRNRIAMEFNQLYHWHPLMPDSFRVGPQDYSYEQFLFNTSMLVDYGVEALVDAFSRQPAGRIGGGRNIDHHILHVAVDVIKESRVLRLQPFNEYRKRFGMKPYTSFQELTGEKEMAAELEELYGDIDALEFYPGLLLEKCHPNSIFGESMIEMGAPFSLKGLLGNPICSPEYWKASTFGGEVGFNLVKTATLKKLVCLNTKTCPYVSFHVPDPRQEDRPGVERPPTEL
Method: (§1) Different concentrations of either celecoxib or tested compounds were incubated with the enzymes for a period of 5 min at 25 °C. After the incubation period the colorimetric substrate and arachidonic acid were added after that the absorbance was measured at 590 nm using plate reader.

[2] = target: T2, Prostaglandin G/H synthase 2 (Ovis aries, UniProt P79208); assay: In Vitro Cyclooxygenase (COX) Inhibition Assay
T2 sequence (P79208 whole entry): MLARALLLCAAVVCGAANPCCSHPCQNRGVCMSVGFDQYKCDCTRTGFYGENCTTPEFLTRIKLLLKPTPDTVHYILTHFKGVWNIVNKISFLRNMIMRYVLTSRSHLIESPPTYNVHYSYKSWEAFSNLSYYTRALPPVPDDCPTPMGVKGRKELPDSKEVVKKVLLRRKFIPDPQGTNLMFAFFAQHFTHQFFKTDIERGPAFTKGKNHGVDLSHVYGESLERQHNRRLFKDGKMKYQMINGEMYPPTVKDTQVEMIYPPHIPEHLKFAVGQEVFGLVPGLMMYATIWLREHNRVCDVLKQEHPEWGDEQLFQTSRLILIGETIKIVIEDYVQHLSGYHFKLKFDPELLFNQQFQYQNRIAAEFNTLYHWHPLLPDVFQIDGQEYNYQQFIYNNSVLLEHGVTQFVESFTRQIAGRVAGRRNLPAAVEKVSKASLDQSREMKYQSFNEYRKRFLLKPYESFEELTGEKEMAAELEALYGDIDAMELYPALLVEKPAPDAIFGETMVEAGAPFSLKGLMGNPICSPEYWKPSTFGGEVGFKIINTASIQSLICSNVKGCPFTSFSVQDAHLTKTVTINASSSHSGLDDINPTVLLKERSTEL
Method: as §1

For Cc1ccc(C2CC(c3ccc(NS(C)(=O)=O)cc3)=NN2c2ccc(S(N)(=O)=O)cc2)cc1 (stereo not drawn) [1-(4-Aminosulfonylphenyl)-3-(4-methanesulfonylaminophenyl)-5-(4-tolyl)-4,5-dihydro-1H-pyrazole (6b)], the IC50 [1] was 23.6 µM and the IC50 [2] was 7.5 µM.

Work on CS(=O)(=O)Nc1ccc(C2=NN(c3ccc(S(N)(=O)=O)cc3)C(c3ccccc3)C2)cc1 (stereo not drawn) [1-(4-Aminosulfonylphenyl)-3-(4-methanesulfonylaminophenyl)-5-phenyl-4,5-dihydro-1H-pyrazole (6a)] yielded an IC50 [1] of 7.6 µM and an IC50 [2] of 1.3 µM.

With CS(=O)(=O)Nc1ccc(C2=NN(c3ccc(S(N)(=O)=O)cc3)C(c3ccco3)C2)cc1 (stereo not drawn) [1-(4-Aminosulfonylphenyl)-5-(2-furyl)-3-(4-methanesulfonylaminophenyl)-4,5-dihydro-1H-pyrazole (6e)] the IC50 [1] was 16.5 µM and the IC50 [2] was 3.5 µM.

CS(=O)(=O)Nc1ccc(C2=NN(c3ccc(S(N)(=O)=O)cc3)C(c3cccs3)C2)cc1 (stereo not drawn) [1-(4-Aminosulfonylphenyl)-5-(2-thienyl)-3-(4-methanesulfonylaminophenyl)-4,5-dihydro-1H-pyrazole (6f)] showed an IC50 [1] of 25.1 µM and an IC50 [2] of 7.8 µM.

CS(=O)(=O)Nc1ccc(C2=NN(c3ccc(S(N)(=O)=O)cc3)C(c3ccc(Cl)cc3)C2)cc1 (stereo not drawn) [1-(4-Aminosulfonylphenyl)-5-(4-chlorophenyl)-3-(4-methanesulfonylaminophenyl)-4,5-dihydro-1H-pyrazole (6c)] showed an IC50 [1] of 9.7 µM and an IC50 [2] of 2.4 µM.

For CS(=O)(=O)Nc1ccc(C2=NN(c3ccc(S(N)(=O)=O)cc3)C(c3ccc(F)cc3)C2)cc1 (stereo not drawn) [1-(4-Aminosulfonylphenyl)-5-(4-fluorophenyl)-3-(4-methanesulfonylaminophenyl)-4,5-dihydro-1H-pyrazole (6d)], the IC50 [1] was 18.7 µM and the IC50 [2] was 3.9 µM.

Work on CC(C)Cc1ccc(-c2cc(-c3ccco3)c(C#N)c(=O)[nH]2)cc1 [4-(2-Furyl)-6-(4-isobutylphenyl)-2-oxo-1,2-dihydropyridine-3-carbonitrile (4k)] yielded an IC50 [1] of 7.3 µM and an IC50 [2] of 1.11 µM.

For CS(=O)(=O)Nc1ccc(-c2cc(-c3ccco3)c(C#N)c(=O)[nH]2)cc1 [4-(2-Furyl)-6-(4-methanesulfonylaminophenyl)-2-oxo-1,2-dihydropyridine-3-carbonitrile (4q)], the IC50 [1] was 9.8 µM and the IC50 [2] was 2.9 µM.

For N#Cc1c(-c2ccco2)cc(-c2ccc([N+](=O)[O-])cc2)[nH]c1=O [4-(2-Furyl)-6-(4-nitrophenyl)-2-oxo-1,2-dihydropyridine-3-carbonitrile (4e)], the IC50 [1] was 8.9 µM and the IC50 [2] was 1.2 µM.

Compound CC(C)Cc1ccc(-c2cc(-c3ccc(Cl)cc3)c(C#N)c(=O)[nH]2)cc1 [4-(4-Chlorophenyl)-6-(4-isobutylphenyl)-2-oxo-1,2-dihydropyridine-3-carbonitrile (4i)] has an IC50 [1] of 14.2 µM and an IC50 [2] of 5.1 µM.

CS(=O)(=O)Nc1ccc(-c2cc(-c3ccc(Cl)cc3)c(C#N)c(=O)[nH]2)cc1 [4-(4-Chlorophenyl)-6-(4-methanesulfonylaminophenyl)-2-oxo-1,2-dihydropyridine-3-carbonitrile (4o)] gave an IC50 [1] of 15.3 µM and an IC50 [2] of 3.4 µM.

Work on CC(C)Cc1ccc(-c2cc(-c3ccc(F)cc3)c(C#N)c(=O)[nH]2)cc1 [4-(4-Fluorophenyl)-6-(4-isobutylphenyl)-2-oxo-1,2-dihydropyridine-3-carbonitrile (4j)] yielded an IC50 [1] of 6.5 µM and an IC50 [2] of 0.93 µM.

For CS(=O)(=O)Nc1ccc(-c2cc(-c3ccc(F)cc3)c(C#N)c(=O)[nH]2)cc1 [4-(4-Fluorophenyl)-6-(4-methanesulfonylaminophenyl)-2-oxo-1,2-dihydropyridine-3-carbonitrile (4p)], the IC50 [1] was 10.7 µM and the IC50 [2] was 2.5 µM.

Compound N#Cc1c(-c2ccc(F)cc2)cc(-c2ccc([N+](=O)[O-])cc2)[nH]c1=O [4-(4-Fluorophenyl)-6-(4-nitrophenyl)-2-oxo-1,2-dihydropyridine-3-carbonitrile (4d)] has an IC50 [1] of 13.4 µM and an IC50 [2] of 4.6 µM.

N#Cc1c(-c2ccc(Cl)cc2)cc(-c2ccc([N+](=O)[O-])cc2)[nH]c1=O [4-(4-chlorophenyl)-6-(4-nitrophenyl)-2-oxo-1,2-dihydropyridine-3-carbonitrile (4c)] showed an IC50 [1] of 23.4 µM and an IC50 [2] of 7.3 µM.

CC(C)Cc1ccc(-c2cc(-c3cccs3)c(C#N)c(=O)[nH]2)cc1 [6-(4-Isobutylphenyl)-2-oxo-4-(2-thienyl)-1,2-dihydropyridine-3-carbonitrile (4l)] showed an IC50 [1] of 12.7 µM and an IC50 [2] of 3.7 µM.

Work on Cc1ccc(-c2cc(-c3ccc(CC(C)C)cc3)[nH]c(=O)c2C#N)cc1 [6-(4-Isobutylphenyl)-2-oxo-4-(p-tolyl)-1,2-dihydropyridine-3-carbonitrile (4h)] yielded an IC50 [1] of 11.2 µM and an IC50 [2] of 2.7 µM.

CC(C)Cc1ccc(-c2cc(-c3ccccc3)c(C#N)c(=O)[nH]2)cc1 [6-(4-Isobutylphenyl)-2-oxo-4-phenyl-1,2-dihydropyridine-3-carbonitrile (4g)] showed an IC50 [1] of 13.1 µM and an IC50 [2] of 3.4 µM.

Work on CS(=O)(=O)Nc1ccc(-c2cc(-c3cccs3)c(C#N)c(=O)[nH]2)cc1 [6-(4-Methanesulfonylaminophenyl)-2-oxo-4-(2-thienyl)-1,2-dihydropyridine-3-carbonitrile (4r)] yielded an IC50 [1] of 32.1 µM and an IC50 [2] of 10.2 µM.

Cc1ccc(-c2cc(-c3ccc(NS(C)(=O)=O)cc3)[nH]c(=O)c2C#N)cc1 [6-(4-Methanesulfonylaminophenyl)-2-oxo-4-(4-tolyl)-1,2-dihydropyridine-3-carbonitrile (4n)] was tested, and the IC50 [1] was 8.6 µM and the IC50 [2] was 1.3 µM.

CS(=O)(=O)Nc1ccc(-c2cc(-c3ccccc3)c(C#N)c(=O)[nH]2)cc1 [6-(4-Methanesulfonylaminophenyl)-2-oxo-4-phenyl-1,2-dihydropyridine-3-carbonitrile (4m)] gave an IC50 [1] of 9.4 µM and an IC50 [2] of 1.6 µM.

Cc1ccc(-c2cc(-c3ccc([N+](=O)[O-])cc3)[nH]c(=O)c2C#N)cc1 [6-(4-Nitrophenyl)-2-oxo-4-(p-tolyl)-1,2-dihydropyridine-3-carbonitrile (4b)] showed an IC50 [1] of 12.9 µM and an IC50 [2] of 2.9 µM.

In the case of N#Cc1c(-c2cccs2)cc(-c2ccc([N+](=O)[O-])cc2)[nH]c1=O [6-(4-nitrophenyl)-2-oxo-4-(thiophen-2-yl)-1,2-dihydropyridine-3-carbonitrile (4f)], the IC50 [1] is reported as 6.8 µM and the IC50 [2] is reported as 0.87 µM.

With N#Cc1c(-c2ccccc2)cc(-c2ccc([N+](=O)[O-])cc2)[nH]c1=O [6-(4-nitrophenyl)-2-oxo-4-phenyl-1,2-dihydropyridine-3-carbonitrile (4a)] the IC50 [1] was 12.4 µM and the IC50 [2] was 3.8 µM.

From BindingDB's records for doi:10.1016/j.bioorg.2016.12.008 (Fayoum University, 2017)
